Measured values: patent US6255339A, “Tetrahydronaphthofuranone derivatives and process for producing the same” (Meiji Seika Kaisha, Ltd., priority 1996, dated 2001)

Test system: not listed separately
Assay: Acute Toxicity
Format: in vivo, SD male rat
Conditions: SD male rat (16 weeks old), hypodermic, 60 mg/kg in 0.2% methylcellulose
Protocol: The compound of Example A4 dissolved in 0.2% of methylcellulose solution was hypodermically administered to SD male rat (16 weeks old) at a dose of 60 mg/kg.
With `CCC(=O)O[C@H]1[C@@H](OC(=O)CC)C=C2C=C3OC(=O)C(C)=C3C[C@]2(C)[C@H]1C` [Example A4, (4aR,5R,6R,7S)-6,7-Dipropionyloxy-4a,5,6,7-tetrahydro-3,4a,5-trimethylnaphtho[2,3-b]furan-2(4H)-one] the survival was “all the animals survived”.

Same assay, conditions: rat, in vivo, 60 mg/kg
In the case of `CCC(=O)O[C@H]1[C@@H](OC(=O)CC)C=C2C=C3OC(=O)C(C)=C3C[C@]2(C)[C@H]1C` [Example A4, (4aR,5R,6R,7S)-6,7-Dipropionyloxy-4a,5,6,7-tetrahydro-3,4a,5-trimethylnaphtho[2,3-b]furan-2(4H)-one], the toxicity is reported as “no significant toxicity”.

Molecular target: T1, progesterone receptor (Sus scrofa, UniProt D0EWS6)
T1 construct: from tissue; host or cells: hog uterus, cytosol (100,000×g supernatant)
T1 sequence (D0EWS6 1-934): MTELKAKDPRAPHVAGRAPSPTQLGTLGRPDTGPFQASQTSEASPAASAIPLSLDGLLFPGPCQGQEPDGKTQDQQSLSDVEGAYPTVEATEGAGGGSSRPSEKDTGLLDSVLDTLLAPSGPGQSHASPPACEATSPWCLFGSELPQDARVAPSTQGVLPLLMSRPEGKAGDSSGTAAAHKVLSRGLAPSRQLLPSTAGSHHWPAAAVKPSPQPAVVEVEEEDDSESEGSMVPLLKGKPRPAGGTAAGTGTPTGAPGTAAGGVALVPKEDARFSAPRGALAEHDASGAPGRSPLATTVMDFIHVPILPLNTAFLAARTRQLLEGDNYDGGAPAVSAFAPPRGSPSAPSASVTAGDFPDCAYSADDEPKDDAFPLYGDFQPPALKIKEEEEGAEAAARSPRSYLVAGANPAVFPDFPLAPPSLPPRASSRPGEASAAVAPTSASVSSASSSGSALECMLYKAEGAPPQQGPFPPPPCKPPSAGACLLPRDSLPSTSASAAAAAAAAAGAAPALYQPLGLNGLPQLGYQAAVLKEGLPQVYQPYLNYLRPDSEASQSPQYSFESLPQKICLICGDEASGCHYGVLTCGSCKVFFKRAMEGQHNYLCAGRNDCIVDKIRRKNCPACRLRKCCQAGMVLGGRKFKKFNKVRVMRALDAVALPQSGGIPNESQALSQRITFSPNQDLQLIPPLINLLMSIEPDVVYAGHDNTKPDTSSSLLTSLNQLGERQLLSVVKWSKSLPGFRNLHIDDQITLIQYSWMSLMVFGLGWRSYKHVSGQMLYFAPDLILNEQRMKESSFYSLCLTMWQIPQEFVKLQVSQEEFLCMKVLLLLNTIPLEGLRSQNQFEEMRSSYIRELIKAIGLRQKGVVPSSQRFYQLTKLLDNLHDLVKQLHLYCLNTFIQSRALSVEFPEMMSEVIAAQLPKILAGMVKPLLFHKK
Assay: progesterone receptor binding inhibition ([^3 H]-progesterone, cytosol from uteri of hogs)
Conditions: [^3 H]-progesterone ligand, hog uterus cytosol, 60 min at 4° C.; read-out: Inhibitory activity (IC50) against progesterone receptor binding
Protocol: That is, uteri taken from hogs in 5 mM phosphate buffer were disrupted using Polytron homogenizer, and the resulting solution was centrifuged (100,000×g, 30 min) to separate the supernatant, thereby preparing a cytosol containing progesterone receptor. […] Then, 100 μl of a 0.5% activated carbon solution was added to the reaction solution, and the mixture was allowed to stand for 10 min and then centrifuged (2,000×g, 10 min). The radioactivity of the supernatant was measured with a liquid scintillation counter.
Separately, the radioactivity was measured in the same manner as described above, except that no test drug was added. Further, the radioactivity was measured in the same manner as described above, except that 10 μl of Medroxyprogesterone Acetate (MPA) (10 μg/ml) was added instead of the test drug. The radioactivity with no test drug added was defined as the amount of total binding of [^3 H]-progesterone to the cytosol, and the radioactivity with MPA added was defined as the amount of non-specific binding. The inhibition ratio was calculated from these measured values by the following equation to determine the binding inhibitory activity (IC50). [formula]
`CC(=O)O[C@H]1CC=C2C=C3OC(=O)C=C3C[C@]2(C)[C@H]1C` (relative stereo) [Example B27, (4aR*,5R*,6S*)-6-Acetoxy-4a,5-dimethyl-4a,5,6,7-tetrahydronaphtho [2,3-b]furan-2(4H)-one] showed an IC50 of 39 nM.
Compound `CC1=C2C[C@@]3(C)C(=C[C@H](O)[C@H](OC(=O)CCl)[C@@H]3C)C=C2OC1=O` [Example A12, (4aR,5R,6R,7S)-6-Chloroacetoxy-7-hydroxy-4a,5,6,7-tetrahydro-3,4a,5-trimethylnaphtho[2,3-b]furan-2(4H)-one] has an IC50 of 83 nM.
`CC(=O)O[C@H]1CC=C2C=C3OC(=O)C(C)=C3C[C@]2(C)[C@H]1C` [B42 (Natural type)] gave an IC50 of 33 nM.
In the case of `CCCNC(=O)O[C@H]1[C@@H](O)C=C2C=C3OC(=O)C(C)=C3C[C@]2(C)[C@H]1C` [Example A6b, (4aR,5R,6R,7S)-7-Hydroxy-6-(n-propyl)carbamoyloxy-4a,5,6,7-tetrahydro-3,4a,5-trimethylnaphtho[2,3-b]furan-2(4H)-one], the IC50 is reported as 288 nM.
Compound `CO[C@H]1C=C2C=C3OC(=O)C(C)=C3C[C@]2(C)[C@@H](C)[C@H]1OC(C)=O` [Example A30, (4aR,5R,6R,7S)-6-Acetoxy-7-methoxy-4a,5,6,7-tetrahydro-3,4a, 5-trimethylnaphtho[2,3-b]furan-2(4H)-one] has an IC50 of 47 nM.
In the case of `CCC(=O)O[C@H]1[C@H](OC)C=C2C=C3OC(=O)C(C)=C3C[C@]2(C)[C@H]1C` [Example A10, (4aR,5R,6R,7R)-7-Methoxy-6-propionyloxy-4a,5,6,7-tetrahydro-3,4a,5-trimethylnaphtho[2,3-b]furan-2(4H)-one], the IC50 is reported as 75 nM.
With `CCCC(=O)O[C@H]1CC=C2C=C3OC(=O)C(C)=C3C[C@]2(C)[C@H]1C` (relative stereo) [Example B4, (4aR*,5R*,6S*)-6-Butyryloxy-4a,5,6,7-tetrahydro-3,4a,5-trimethylnaphtho[2,3-b]furan-2(4H)-one] the IC50 was 53 nM.
In the case of `CC1=C2C[C@@]3(C)C(=C[C@H](O)[C@H](OC(=O)c4ccccc4)[C@@H]3C)C=C2OC1=O` [Example A21, (4aR,5R,6R,7S)-6-Benzoyloxy-7-hydroxy-4a,5,6,7-tetrahydro-3,4a,5-trimethylnaphtho[2,3-b]furan-2(4H)-one], the IC50 is reported as 27 nM.
For `COCO[C@H]1C=C2C=C3OC(=O)C(C)=C3C[C@]2(C)[C@@H](C)[C@H]1OC(=O)c1ccccc1` [Example A8, (4aR,5R,6R,7S)-6-Benzoyloxy-7-methoxymethoxy-4a,5,6,7-tetrahydro-3,4a,5-trimethylnaphtho[2,3-b]furan-2(4H)-one], the IC50 was 97 nM.
In the case of `CCC(=O)O[C@H]1[C@@H](OC(=O)CC)C=C2C=C3OC(=O)C(C)=C3C[C@]2(C)[C@H]1C` [Example A4, (4aR,5R,6R,7S)-6,7-Dipropionyloxy-4a,5,6,7-tetrahydro-3,4a,5-trimethylnaphtho[2,3-b]furan-2(4H)-one], the IC50 is reported as 32 nM.
With `C[C@H]1[C@@H](OC(=O)c2ccco2)CC=C2C=C3OC(=O)C=C3C[C@@]21C` (relative stereo) [Example B30, (4aR*,5R*,6S*)-4a,5-Dimethyl-6-(2-furoyl)oxy-4a,5,6,7-tetrahydronaphtho[2,3-b]furan-2(4H)-one] the IC50 was 60 nM.
With `CC1=C2C[C@@]3(C)C(=CC[C@H](OC(=O)c4ccccc4)[C@@H]3C)C=C2OC1=O` (relative stereo) [Example B7, (4aR*,5R*,6S*)-6-Benzoyloxy-4a,5,6,7-tetrahydro-3,4a,5-trimethylnaphtho[2,3-b]furan-2(4H)-one] the IC50 was 54 nM.
Work on `CC1=C2C[C@@]3(C)C(=C[C@H](O)[C@H](OC(=O)C4CC4)[C@@H]3C)C=C2OC1=O` [Example A17, (4aR,5R,6R,7S)-6-Cyclopropylcarbonyloxy-7-hydroxy-4a,5,6,7-tetrahydro-3,4a,5-trimethylnaphtho[2,3-b]furan-2(4H)-one] yielded an IC50 of 17 nM.
For `CC1=C2C[C@@]3(C)C(=C[C@H](O)[C@H](OC(=O)C4CCCCC4)[C@@H]3C)C=C2OC1=O` [Example A19, (4aR,5R,6R,7S)-6-Cyclohexylcarbonyloxy-7-hydroxy-4a,5,6,7-tetrahydro-3,4a,5-trimethylnaphtho[2,3-b]furan-2(4H)-one], the IC50 was 47 nM.
Work on `CC1=C2C[C@@]3(C)C(=C[C@H](O)[C@H](OC(=O)c4ccco4)[C@@H]3C)C=C2OC1=O` [Example A3, (4aR,5R,6R,7S)-6-(2-Furancarbonyl)oxy-7-hydroxy-4a,5,6,7-tetrahydro-3,4a,5-trimethylnaphtho[2,3-b]furan-2(4H)-one] yielded an IC50 of 12 nM.
Work on `CC(=O)O[C@@H]1CC=C2C=C3OC(=O)C(C)=C3C[C@@]2(C)[C@@H]1C` [Example B42 (Nonnatural type)] yielded an IC50 of 797 nM.
Work on `CC1=C2C[C@@]3(C)C(=C[C@H](O)[C@H](OC(=O)c4ccc([N+](=O)[O-])cc4)[C@@H]3C)C=C2OC1=O` [Example A23, (4aR,5R,6R,7S)-7-Hydroxy-6-(4-nitrobenzoyl)oxy-4a,5,6,7-tetrahydro-3,4a,5-trimethylnaphtho[2,3-b]furan-2(4H)-one] yielded an IC50 of 18 nM.
Work on `CCC(=O)O[C@H]1C=C2C=C3OC(=O)C(C)=C3C[C@]2(C)[C@@H](C)[C@H]1O` [Example A1, (4aR,5R,6R,7S)-6-Hydroxy-7-propionyloxy-4a,5,6,7-tetrahydro-3,4a,5-trimethylnaphtho[2,3-b]furan-2(4H)-one] yielded an IC50 of 1000 nM.
`CC(=O)O[C@@H]1C=C2C=C3OC(=O)C(C)=C3C[C@]2(C)[C@@H](C)[C@H]1OC(=O)c1ccco1` [Example A44, (4aR,5R,6R,7R)-7-Acetoxy-6-(2-furancarbonyl)oxy-4a,5,6,7-tetrahydro-3,4a,5-trimethylnaphtho[2,3-b]furan-2(4H)-one] showed an IC50 of 276 nM.
Work on `CC1=C2C[C@@]3(C)C(=C[C@@H](O)[C@H](OC(=O)c4cccs4)[C@@H]3C)C=C2OC1=O` [Example A45, (4aR,5R,6R,7R)-7-Hydroxy-6-(2-thiophencarbonyl)oxy-4a,5,6,7-tetrahydro-3,4a, 5-trimethylnaphtho[2,3-b]furan-2(4H)-one] yielded an IC50 of 29 nM.
For `CC(=O)O[C@H]1CC=C2C=C3OC(=O)C(C)=C3C[C@]2(C)[C@H]1C` (relative stereo) [Example B2, (4aR*,5R*,6S*)-6-Acetoxy-4a,5,6,7-tetrahydro-3,4a,5-trimethylnaphtho[2,3-b]furan-2(4H)-one], the IC50 was 55 nM.
For `CC1=C2C[C@@]3(C)C(=C[C@H](OCc4ccccc4)[C@H](O)[C@@H]3C)C=C2OC1=O` [Example A7, (4aR,5R,6R,7S)-7-Benzyloxy-6-hydroxy-4a,5,6,7-tetrahydro-3,4a,5-trimethylnaphtho[2,3-b]furan-2(4H)-one], the IC50 was 2840 nM.
`CCO[C@@H]1C=C2C=C3OC(=O)C(C)=C3C[C@]2(C)[C@@H](C)[C@H]1OC(=O)c1cccs1` [Example A41, (4aR,5R,6R,7R)-7-Ethoxy-6-(2-thiophencarbonyl)oxy-4a,5,6,7-tetrahydro-3,4a,5-trimethylnaphtho[2,3-b]furan-2(4H)-one] showed an IC50 of 400 nM.
`CCC(=O)O[C@H]1CC=C2C=C3OC(=O)C=C3C[C@]2(C)[C@H]1C` (relative stereo) [Example B28] showed an IC50 of 66 nM.

Test system: not listed separately
Assay: Solubility
Format: physicochemical
Conditions: organic solvents
With `CC(=O)O[C@H]1[C@@H](O)C=C2C=C3OC(=O)C(C)=C3C[C@]2(C)[C@H]1C` [PF1092A] the “Solubility (solvents in which soluble)” value was “soluble in chloroform, acetone, ethyl acetate, methanol and dimethyl sulioxide”.
In the case of `CC1=C2C[C@@]3(C)C(=C[C@H](O)[C@H](O)[C@@H]3C)C=C2OC1=O` [PF1092C], the “Solubility (solvents in which soluble)” value is reported as “soluble in chloroform, acetone, ethyl acetate, methanol and dimethyl sultoxide”.
With `CC(=O)O[C@H]1C=C2C=C3OC(=O)C(C)=C3C[C@]2(C)[C@@H](C)[C@H]1O` [PF1092B] the “Solubility (solvents in which soluble)” value was “soluble in chloroform, acetone, ethyl acetate, methanol and dimethyl sulioxide”.

Same assay, conditions: water and hexane
For `CC(=O)O[C@H]1[C@@H](O)C=C2C=C3OC(=O)C(C)=C3C[C@]2(C)[C@H]1C` [PF1092A], the “Solubility (solvents in which insoluble)” value was “insoluble in water and hexane”.
For `CC1=C2C[C@@]3(C)C(=C[C@H](O)[C@H](O)[C@@H]3C)C=C2OC1=O` [PF1092C], the “Solubility (solvents in which insoluble)” value was “insoluble in water and hexane”.
For `CC(=O)O[C@H]1C=C2C=C3OC(=O)C(C)=C3C[C@]2(C)[C@@H](C)[C@H]1O` [PF1092B], the “Solubility (solvents in which insoluble)” value was “insoluble in water and hexane”.
